Laboratory results: US20210188843A1, “QUINOLINE COMPOUNDS AND THEIR PREPARATION AND USE AS ANTIMALARIAL AGENTS” (The United States of America,as represented by the …, priority 2018, published 2021)
Values after ≈ are worked out from the molar mass of the structure shown. Where two headings read alike, the source gives them in different places.

What was measured:
[1] = tested on: Asexual parasites of P. falciparum strain 3D7; assay: In vitro drug activity on asexual parasites (SYBR Green assay); type: cell-based; conditions: Plasmodium falciparum, P. falciparum 3D7 asexual stage, 72 h, read-out: Asexual EC50
Experimental: Cell culture. Asexual parasites of P. falciparum strain 3D7 were cultured as described previously [Trager W, et al., Journal of Parasitology 2005, 91: 484-486]. Stage III-V gametocytes were selected and enriched with 3-day treatment with 50 mM N-acetylglucosamine (NAG) and the following Percoll density gradient centrifugation after gametocyte production [Tanaka T Q, et al., Molecular and Biochemical Parasitology, 2011, 177: 160-163]. Gametocytes of HB3 and Dd2 strains were produced and then set up for assay in a similar process. HepG2 cells (ATCC, cat. no. 77400) were cultured in 175-cm^2 tissue culture flasks with 30 ml growth medium at 37° C. in a 5% CO2 humidified atmosphere. Growth medium was made with Dulbecco's Modified Eagle Medium with 10% fetal bovine serum (FBS). Growth medium was replaced every other day and cells were passed at 75% confluence.
Asexual parasites of P. falciparum strain 3D7 were cultured as described previously (Trager, W. et al., J. Parasitol. 2005, 91(3): 484-486). Drug activity on asexual stage parasites was tested using a SYBR Green assay as described previously (Eastman, R. T. et al., Antimicrob. Agents Chemother. 2013, 57(1): 425-435; Smilkstein, M. et al., Antimicrob. Agents Chemother. 2004, 48(5): 1803-1806). Briefly, parasites were diluted to 0.5% parasitemia in complete culture medium with 2% hematocrit and drugs diluted in DMSO (<0.5%) and were loaded into a 96-well plate (200 μl/well). No drug and RBC alone wells were included as positive and background controls, respectively, and each testing condition was examined in duplicated. After 72 h incubation under the standard culture condition and a freeze-thaw lysis step at −80° C. and room temperature, 100 μl/well of lysis buffer containing SYBR Green I was added to the parasite culture and incubated for 30 min at room temperature. The fluorescence of each well was measured at 520 nm following excitation at 490 nm using a FLUOstar Optima™ microplate reader (BMG Labtech).
Compounds were screened against gametocytes and asexual parasites as described in Examples 1 and 2.

[2] = Microsomal stability (rat); type: in vitro ADME; conditions: rat microsomes
Solubility pH 7.4 = type: physicochemical; conditions: aqueous buffer
[3] = Table 1, read-out: Microsomal Stability (rat) T1/2

SMILES	EC50 ([1]; Table 1) [nM]	EC50 ([1]; Table 3) [nM]	also measured
Cc1cc(N2CCNC(=O)C2)c(C#N)cc1-n1c(=N)n(C)c2cnc3ccc(-c4ccc(Cl)cc4)cc3c21 [Compound 133, 5-(8-(4-chlorophenyl)-2-imino-3-methyl-2,3-dihydro-1H-imidazo[4,5-c]quinolin-1-yl)-4-methyl-2-(3-oxopiperazin-1-yl)benzonitrile]	6.26	–	–
Cc1ccc(C#N)cc1-n1/c(=N/S(C)(=O)=O)n(C)c2cnc3ccc(-c4ccc(Cl)cc4)cc3c21 [Compound 20, (E)-N-(8-(4-chlorophenyl)-1-(5-cyano-2-methylphenyl)-3-methyl-1,3-dihydro-2H-imidazo[4,5-c]quinolin-2-ylidene)methanesulfonamide]	6.28	–	half-life [2, 3]: > 30 min; solubility (Solubility pH 7.4; Table 1): < 1 µg/mL
CCC(=O)N1CCC(n2c(=N)n(C)c3cnc4ccc(-c5ccc(Cl)cc5)cc4c32)CC1 [Compound 104, 1-(4-(8-(4-chlorophenyl)-2-imino-3-methyl-2,3-dihydro-1H-imidazo[4,5-c]quinolin-1-yl)piperidin-1-yl)propan-1-one]	411	–	half-life [2, 3]: > 30 min; solubility (Solubility pH 7.4; Table 1): > 44 µg/mL
Cc1cc(C#N)cc(-n2c(=N)n(C)c3cnc4ccc(-c5ccc(Cl)cc5)cc4c32)c1 [Compound 71, 3-(8-(4-chlorophenyl)-2-imino-3-methyl-2,3-dihydro-1H-imidazo[4,5-c]quinolin-1-yl)-5-methylbenzonitrile]	511	–	half-life [2, 3]: > 30 min; solubility (Solubility pH 7.4; Table 1): < 1 µg/mL
Cc1cc(N2CCC(O)CC2)c(C#N)cc1-n1c(=N)n(C)c2cnc3ccc(-c4ccc(Cl)cc4)cc3c21 [Compound 114, 5-(8-(4-chlorophenyl)-2-imino-3-methyl-2,3-dihydro-1H-imidazo[4,5-c]quinolin-1-yl)-2-(4-hydroxypiperidin-1-yl)-4-methylbenzonitrile]	55.2	–	half-life [2, 3]: > 30 min; solubility (Solubility pH 7.4; Table 1): < 1 µg/mL
Cn1c(=N)n(-c2cc(C#N)ccc2OC(F)(F)F)c2c3cc(-c4ccc(Cl)cc4)ccc3ncc21 [Compound 54, 3-(8-(4-chlorophenyl)-2-imino-3-methyl-2,3-dihydro-1H-imidazo[4,5-c]quinolin-1-yl)-4-(trifluoromethoxy)benzonitrile]	1420	–	half-life [2, 3]: > 30 min; solubility (Solubility pH 7.4; Table 1): < 1 µg/mL
Cc1cccc(C)c1-n1c(=N)n(C)c2cnc3ccc(-c4ccc(Cl)cc4)cc3c21 [Compound 99, 8-(4-chlorophenyl)-1-(2,6-dimethylphenyl)-3-methyl-1,3-dihydro-2H-imidazo[4,5-c]quinolin-2-imine]	3180	–	half-life [2, 3]: > 30 min; solubility (Solubility pH 7.4; Table 1): > 41 µg/mL
Cc1cc(F)c(C#N)cc1-n1c(=N)n(C)c2cnc3ccc(-c4ccc(Cl)cc4)cc3c21 [Compound 134, 5-(8-(4-chlorophenyl)-2-imino-3-methyl-2,3-dihydro-1H-imidazo[4,5-c]quinolin-1-yl)-2-fluoro-4-methylbenzonitrile]	74.3	–	–
N=c1ccc2cnc3ccc(-c4ccc(Cl)cc4)cc3c2n1-c1cccc(C(F)(F)F)c1	–	–	half-life ([2]; Table 2, read-out: Microsomal Stability (rat) T1/2): > 30 min; EC50 ([1]; Table 2): 213 nM; solubility (Solubility pH 7.4; Table 2): 11.5 µg/mL (≈ 25.6 µM)
Cn1c(=N)n(-c2cccc(S(N)(=O)=O)c2)c2c3cc(-c4ccc(Cl)cc4)ccc3ncc21 [Compound 77, 3-(8-(4-chlorophenyl)-2-imino-3-methyl-2,3-dihydro-1H-imidazo[4,5-c]quinolin-1-yl)benzenesulfonamide]	1400	–	half-life [2, 3]: > 30 min; solubility (Solubility pH 7.4; Table 1): 6.2 µg/mL (≈ 13.4 µM)
Cn1/c(=N\c2cncnc2)n(-c2cncnc2)c2c3cc(-c4cccc(F)c4)ccc3ncc21	–	193	–
CCc1ccc(C#N)cc1-n1c(=N)n(C)c2cnc3ccc(-c4ccc(Cl)cc4)cc3c21 [Compound 7, 3-(8-(4-chlorophenyl)-2-imino-3-methyl-2,3-dihydro-1H-imidazo[4,5-c]quinolin-1-yl)-4-ethylbenzonitrile]	360	–	half-life [2, 3]: > 30 min; solubility (Solubility pH 7.4; Table 1): 3.4 µg/mL (≈ 7.76 µM)
COc1ccc(-c2ccc3ncc4c(c3c2)n(-c2cncnc2C)c(=N)n4C)cc1OC	–	25.8	half-life ([2]; Table 3, read-out: Microsomal Stability (rat) T1/2): > 30 min
Cn1c(=N)n(-c2nccc(C(F)(F)F)n2)c2c3cc(-c4ccc(Cl)cc4)ccc3ncc21	–	450	solubility (Solubility pH 7.4; Table 3): < 1 µg/mL
Cn1c(=N)n(-c2ccnc(C#N)c2)c2c3cc(-c4ccc(Cl)cc4)ccc3ncc21 [Compound 90, 4-(8-(4-chlorophenyl)-2-imino-3-methyl-2,3-dihydro-1H-imidazo[4,5-c]quinolin-1-yl)picolinonitrile]	224	–	–
Cn1c(=N)n(-c2cncnc2)c2c3cc(-c4ccc(Cl)c(C#N)c4)ccc3ncc21	–	136	–

SMILES	EC50 ([1]; Table 1) [nM]	EC50 ([1]; Table 3) [nM]	also measured
Cc1cc(N2CCOC(C)C2)c(C#N)cc1-n1c(=N)n(C)c2cnc3ccc(-c4ccc(Cl)cc4)cc3c21 (stereo not shown) [Compound 119, 5-(8-(4-chlorophenyl)-2-imino-3-methyl-2,3-dihydro-1H-imidazo[4,5-c]quinolin-1-yl)-4-methyl-2-(2-methylmorpholino)benzonitrile]	352	–	–
Cc1cc(N2CCC(NS(C)(=O)=O)CC2)c(C#N)cc1-n1c(=N)n(C)c2cnc3ccc(-c4ccc(Cl)cc4)cc3c21 [Compound 131, N-(1-(4-(8-(4-chlorophenyl)-2-imino-3-methyl-2,3-dihydro-H-imidazo[4,5-c]quinolin-1-yl)-2-cyano-5-methylphenyl)piperidin-4-yl)methanesulfonamide]	16.3	–	–
Cn1c(=N)n(-c2nccc(C(F)(F)F)n2)c2c3cc(-c4cccc(F)c4)ccc3ncc21	–	202	solubility (Solubility pH 7.4; Table 3): < 1 µg/mL
CCC(=O)N1CCC(N2CCC(n3c(=N)n(C)c4cnc5ccc(-c6ccc(Cl)cc6)cc5c43)CC2)CC1 [Compound 128, 1-(4-(8-(4-chlorophenyl)-2-imino-3-methyl-2,3-dihydro-1H-imidazo[4,5-c]quinolin-1-yl)-[1,4′-bipiperidin]-1′-yl)propan-1-one]	627	–	–
CC(=O)N1CCC(N2CCC(n3c(=N)n(C)c4cnc5ccc(-c6ccc(Cl)cc6)cc5c43)CC2)CC1 [Compound 127, 1-(4-(8-(4-chlorophenyl)-2-imino-3-methyl-2,3-dihydro-1H-imidazo[4,5-c]quinolin-1-yl)-[1,4′-bipiperidin]-1′-yl)ethan-1-one]	1500	–	–
Cc1cc(N2CCCC2)c(C#N)cc1-n1c(=N)n(C)c2cnc3ccc(-c4ccc(Cl)cc4)cc3c21 [Compound 111, 5-(8-(4-chlorophenyl)-2-imino-3-methyl-2,3-dihydro-1H-imidazo[4,5-c]quinolin-1-yl)-4-methyl-2-(pyrrolidin-1-yl)benzonitrile]	801	–	–
COC(=O)/N=c1\n(C)c2cnc3ccc(-c4cccc(F)c4)cc3c2n1-c1cc(C#N)c(N2CCOCC2)cc1C [Compound 148, Methyl (E)-(1-(5-cyano-2-methyl-4-morpholinophenyl)-8-(3-fluorophenyl)-3-methyl-1,3-dihydro-2H-imidazo[4,5-c]quinolin-2-ylidene)carbamate]	236	–	–
Cc1cc(N2C[C@@H]3CCCN[C@@H]3C2)c(C#N)cc1-n1c(=N)n(C)c2cnc3ccc(-c4ccc(Cl)cc4)cc3c21 [Compound 120, 5-(8-(4-chlorophenyl)-2-imino-3-methyl-2,3-dihydro-1H-imidazo[4,5-c]quinolin-1-yl)-4-methyl-2-((4aS,7aS)-octahydro-6H-pyrrolo[3,4-b]pyridin-6-yl)benzonitrile]	1470	–	–
Cn1nccc1-c1ccc2ncc3c(c2c1)n(-c1cncnc1)c(=N)n3C	–	570	solubility (Solubility pH 7.4; Table 3): 36.3 µg/mL (≈ 102 µM)
COc1cc(-c2ccc3ncc4c(c3c2)n(-c2cncnc2C)c(=N)n4C)ccc1F	–	52.5	solubility (Solubility pH 7.4; Table 3): < 1 µg/mL
COc1ccnc(-n2c(=N)n(C)c3cnc4ccc(-c5ccc(Cl)cc5)cc4c32)n1	–	2110	solubility (Solubility pH 7.4; Table 3): < 1 µg/mL
COc1cc(-c2ccc3ncc4c(c3c2)n(-c2cncnc2C)c(=N)n4C)ccc1Cl	–	50.8	solubility (Solubility pH 7.4; Table 3): 1.3 µg/mL (≈ 3.02 µM)
Cn1c(=N)n(-c2cccc(CC#N)c2)c2c3cc(-c4ccc(Cl)cc4)ccc3ncc21 [Compound 73, 2-(3-(8-(4-chlorophenyl)-2-imino-3-methyl-2,3-dihydro-1H-imidazo[4,5-c]quinolin-1-yl)phenyl)acetonitrile]	118	–	–
COc1ccc(-c2ccc3ncc4c(c3c2)n(-c2cncnc2C)c(=N)n4C)cc1F	–	229	solubility (Solubility pH 7.4; Table 3): > 61 µg/mL
COc1ccnc(-n2c(=N)n(C)c3cnc4ccc(-c5cccc(F)c5)cc4c32)n1	–	1310	solubility (Solubility pH 7.4; Table 3): 6.5 µg/mL (≈ 16.2 µM)
